The subject of one assay is MCF-7 cells. The assay can be described thus: Protein synthesis assay (35S-methionine incorporation) in MCF-7 cells. The format is cell-based, human. The note with it: MCF-7, 2.5 h compound, 35S-Met label 30 min. How it is done: Data are plotted as percent decrease in forward scatter. […] Error bars represent standard deviation of the mean of duplicates; graph represents data from one of two separate experiments
Another functional correlate dependent on mTORC1 activity is protein synthesis. […] The functional effects of NR1 on cell size and protein synthesis are consistent with the observed selective inhibition of mTORC1 pathway signaling.
The protein synthesis assay was performed by incubation of MCF7 cells with compounds in MEM + 10% dialyzed FBS for 2.5 h and then incubated in labeling mix (compounds, Met- and Cys-free media, 10% dialyzed FBS, and ^35S protein labeling mix) for 30 min. Cells were lysed, proteins were precipitated, and resuspended pellets were read on a Microbeta 2.

Assay [1] relates to S473pAKT (mTORC2 activity) in MCF-7 cells. The assay can be described thus: S473pAKT AlphaLISA assay in MCF-7 cells. The assay is classed as cell-based, human. The following applies: MCF-7, replete conditions, 120 min, dose-dependent. An excerpt:
We next evaluated the activity of NR1 in cell culture. Selective inhibition of mTORC1 in cells produces a specific signaling signature characterized by a reduction in phosphorylation of the mTORC1 substrates S6K1 and 4E-BP1 and increase in phosphorylation of AKT, catalyzed by mTORC2. This distinctive profile reflects the relief of a feedback loop where active S6K1 directly phosphorylates IRS1, resulting in the degradation of IRS1 and subsequent reduction of growth factor signaling from RTKs to downstream effectors such as AKT[1]. Conversely, reduction in ^T389pS6K1 is expected to lead to an increase in ^S473pAKT levels. We used AlphaLISA assays to detect ^T389pS6K1 and ^S473pAKT in MCF-7 cells. […]
Evaluation of NR1 in MCF-7 under replete conditions. […] The indicated phosphoproteins were detected using AlphaLISA assays for T389pS6K1 (reflecting mTORC1 activity) and S473pAKT (reflecting mTORC2 activity). […]
The compounds were added to the kinase reaction mixture by Acoustic technology (Echo550; nanoliter range) and incubated for 20 min at room temperature before the addition of 100 µM 33P-ATP. The reaction was incubated for 2 h at room temperature, and kinase activity was detected by a P81 filter- […]
AlphaLISA assays. […] The AlphaLISA protocol was performed in 384-well plates as instructed by Perkin Elmer, and the plates were read on an EnVision plate reader. […]

The target of assay [2] is T1, FLAG-Rheb / myc-mTOR interaction (Homo sapiens, UniProt Q15382).
T1 construct: expressed in transfected cells
The assay can be described thus: Co-immunoprecipitation of overexpressed FLAG-Rheb and myc-mTOR. The format is cell-based. The note with it: review-only material. From the text:
Response: We agree with Reviewer 2 and have included a brief discussion on the potential effects of chronic Rheb inhibition in the discussion section (p. 25).
“As with any new pharmacological agent, the anticipated side effects will need to be considered. The only data available from the literature that may help in understanding the potential side-effects of reducing Rheb activity come from genetic knock-out studies which, because of their inherent impacts on developmental and other effects, cannot be directly related to what might be expected following pharmacological inhibition. Thus, careful development of a novel Rheb inhibitor would have to take into account the potential organ systems that may be impacted, such as neurological63, 64 and […]
Below is a list of concerns that would need to be addressed in order for this work to be considered for publication in Nature Communications.
1. The authors state that it is “conceivable that portions of NR1 positioned outside the Rheb binding pocket sterically block the interaction with mTORC1. Given that the authors have access to recombinant Rheb and mTOR protein, it is unclear why there is no direct evidence that NR1 can inhibit their interaction. Alternatively, the effects of NR1 on Rheb-mTOR interactions could be shown in cells through co-IP. […]

The source of these data is publication PMC5803267, “A small molecule inhibitor of Rheb selectively targets mTORC1 signaling” (Nature Communications, 2018).

The structures appear in SMILES notation.

T1 sequence (Q15382 1-181 limits assumed): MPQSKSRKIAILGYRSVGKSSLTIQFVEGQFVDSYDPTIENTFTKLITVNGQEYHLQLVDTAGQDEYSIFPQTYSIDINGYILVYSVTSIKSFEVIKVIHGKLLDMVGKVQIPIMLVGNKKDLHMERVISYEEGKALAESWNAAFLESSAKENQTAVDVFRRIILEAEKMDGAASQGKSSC

For `CN(C)C(=O)c1ccc(Cn2c(C(=O)O)cc3c(Br)cc(Sc4ccc(Cl)c(Cl)c4)cc32)cc1` [NR1, 4-bromo-6-(3,4-dichlorophenylthio)-1-(4-(dimethylcarbamoyl)benzyl)-1H-indole-2-carboxylic acid], the protein synthesis result in the assay with MCF-7 cells was “dose-dependently reduce protein synthesis”. The “phosphorylation of S473pAKT” value in assay [1] was “increased the phosphorylation”. In addition, in assay [2], the Rheb-mTOR interaction entry is on record as “does not modulate”.
